Laboratory results from paper PMC5537225, “Therapeutic efficacy of a respiratory syncytial virus fusion inhibitor” (Nature Communications, 2017).
Where two headings read alike, the source gives them in different places.

Tests used:
[1] = system: rgRSV224 D489Y mutant strain; assay type: cell-based, respiratory syncytial virus
rgRSV224 = assay: microbe, parasite or virus in culture; assay type: cell-based, respiratory syncytial virus; conditions: for EC50: human respiratory syncytial virus, HeLa
[2] = system: rgRSV224 L141W mutant strain; assay type: cell-based, respiratory syncytial virus; conditions: mutant selected with JNJ-53718678
recombinant hMPV = assay: microbe, parasite or virus in culture; assay type: cell-based; conditions: human metapneumovirus, Vero/TMPRSS2; mean of at least 3 experiments
in vitro [3] = conditions: African green monkey
post-fusion RSV F = assay type: binding; conditions: ITC
RSV A2 = assay: Viral titer in RSV-inoculated BALB/c mice; assay type: in vivo; conditions: single 40 mg kg−1 dose 1 h before infection
[4] = system: RSV-induced pro-inflammatory cytokines and chemokines; assay: Cytokine and chemokine analysis in RSV-infected BALB/c mice; assay type: in vivo; conditions: single 40 mg kg−1 p.o. 1 h before infection, Day 6, mean ± s.e.m., n=6
RSV M37 strain = assay: In vivo efficacy in RSV-infected neonatal lambs
[5] = system: HCV genotype 1b subgenomic replicon; assay: microbe, parasite or virus in culture; assay type: cell-based; conditions: Hepatitis C virus; mean of at least 3 experiments
recombinant PIV-3 strain = assay: microbe, parasite or virus in culture; assay type: cell-based, human parainfluenza virus 3; conditions: Human respirovirus 3, Vero; mean of at least 3 experiments
recombinant MV = assay: MV assay in Vero/hSLAM cells; conditions: Measles morbillivirus, Vero, read-out: EC50 MV
in vitro [6] = conditions: human
Description: Briefly, 96-well plates were filled with 100 µl/well of HepG2.117 cells (2 × 10^4 cells per well) and incubated overnight at 37 °C in a humidified atmosphere containing 5% CO2.

DENV-2 = assay: microbe, parasite or virus in culture; assay type: cell-based; conditions: Dengue virus, read-out: EC50 DENV
HeLa RH cells = conditions: human, 3 days
Description: (§1) After 3 days of incubation at 33 °C, cytopathic effect (CPE) was quantified by measuring the ATP content in compound-treated and non-treated cells with ATPlite kit according to the manufacturer’s instructions. Cytotoxicity of the compound was determined in a parallel set of plates mock-infected with cell culture medium. After 3 days of incubation at 33 °C, ATP content in compound-treated and non-treated cells was quantified with ATPlite kit.

in vivo [7] = conditions: 10 mg/kg
[8] = target: T1, prefusion D489Y mutant RSV F (DS-Cav1) (Human respiratory syncytial virus A, UniProt P03420, D489Y/I379V/M447V/S155C/S190F/S290C/V207L); assay type: binding; conditions: ITC; 1:1 fits could not be determined
T1 construct: purification tags incl; made in house; host or cells: FreeStyle 293 F cells, with kifunensine
T1 sequence (P03420 26-109, stated change not applied): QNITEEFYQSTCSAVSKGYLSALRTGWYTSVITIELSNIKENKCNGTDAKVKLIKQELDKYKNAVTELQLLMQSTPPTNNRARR
T1 sequence (P03420 137-513, looked up, stated change not applied): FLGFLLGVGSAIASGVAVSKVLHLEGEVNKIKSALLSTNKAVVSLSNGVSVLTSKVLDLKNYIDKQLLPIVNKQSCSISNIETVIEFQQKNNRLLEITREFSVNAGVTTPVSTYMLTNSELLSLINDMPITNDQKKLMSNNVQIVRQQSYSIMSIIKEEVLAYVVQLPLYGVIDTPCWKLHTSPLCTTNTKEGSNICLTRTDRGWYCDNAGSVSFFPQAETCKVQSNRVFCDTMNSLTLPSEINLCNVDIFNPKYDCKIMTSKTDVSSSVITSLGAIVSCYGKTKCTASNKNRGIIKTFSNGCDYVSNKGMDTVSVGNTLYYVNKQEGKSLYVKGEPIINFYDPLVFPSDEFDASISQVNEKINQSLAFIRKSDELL

in vivo [9] = conditions: male, Beagle, dog
CVB = CVB assay in Vero Bayer cells; assay type: cell-based, Coxsackie virus B4; conditions: Enterovirus B, mean of at least 3 experiments
[10] = system: RSV-induced cellular influx in the lungs; assay: Measurement of cellular influx into the lungs of RSV-infected BALB/c mice; assay type: in vivo
[11] = target: T2, prefusion L141W mutant RSV F (DS-Cav1) (Human respiratory syncytial virus A, UniProt P03420, I379V/L141W/M447V/S155C/S190F/S290C/V207L); assay type: binding; conditions: ITC; 1:1 fits could not be determined
T2 construct: purification tags incl; made in house; host or cells: FreeStyle 293 F cells, with kifunensine
T2 sequence (P03420 137-513, looked up, stated change not applied): as above
T2 sequence (P03420 26-109, stated change not applied): as the sequence (P03420 26-109, stated change not applied) above

CMV-AD169-eGFP virus = assay: microbe, parasite or virus in culture; assay type: cell-based, cytomegalovirus; conditions: Human betaherpesvirus 5, AD169, HEL 299; mean of at least 3 experiments
[12] = target: T3, prefusion-stabilized RSV F protein (DS-Cav1) (Human respiratory syncytial virus A, UniProt P03420, I379V/M447V/S155C/S190F/S290C/V207L); assay: biochemical; assay type: binding; conditions: ITC
T3 construct: purification tags incl; made in house; host or cells: FreeStyle 293 F cells, with kifunensine
T3 sequence (P03420 137-513, looked up, stated change not applied): as the sequence (P03420 137-513, looked up, stated change not applied) above
T3 sequence (P03420 26-109, stated change not applied): as the sequence (P03420 26-109, stated change not applied) above

[13] = system: rgRSV224 in human bronchoepithelial cells (HBECs); assay: Antiviral potency in air-liquid cultures of HBECs infected with rgRSV224
in vitro [14] = conditions: African green monkey; remark: listed apart in the source
Description: Briefly, black 384-well clear-bottom microtiter plates were filled in quadruplicate using a customized robot system with serial fourfold dilutions of compound in a final volume of 200 nl DMSO. Then, 20 µl of a Vero Bayer cell suspension (3.75 × 10^4 cells/ml) in culture medium was added to each well followed by the addition of 20 µl PIV-3-eGFP virus (MOI = 1) in culture medium, or 20 µl culture medium for cell controls, using a multidrop dispenser.

HRV 16 = assay: HRV assay (CPE, HeLa RH cells), HRV 16; conditions: Rhinovirus A, read-out: EC50 HRV 16
Description: as §1

HRV 1b = assay: HRV assay (CPE, HeLa RH cells), HRV 1b; conditions: Rhinovirus A, read-out: EC50 HRV 1b
Description: as §1

[15] = target: T4, full-length wild-type RSV F protein (Human respiratory syncytial virus A, UniProt P03420); assay: Membrane-bound F protein stability assay (heat-shock flow cytometry, HEK293T cells); assay type: cell-based; conditions: 55 °C for 10 min
T4 construct: The full-length wild-type RSV F protein was transiently expressed in HEK293T cells; expressed in transfected cells; host or cells: HEK293T
T4 sequence (P03420 26-109): as the sequence (P03420 26-109, stated change not applied) above
T4 sequence (P03420 137-574): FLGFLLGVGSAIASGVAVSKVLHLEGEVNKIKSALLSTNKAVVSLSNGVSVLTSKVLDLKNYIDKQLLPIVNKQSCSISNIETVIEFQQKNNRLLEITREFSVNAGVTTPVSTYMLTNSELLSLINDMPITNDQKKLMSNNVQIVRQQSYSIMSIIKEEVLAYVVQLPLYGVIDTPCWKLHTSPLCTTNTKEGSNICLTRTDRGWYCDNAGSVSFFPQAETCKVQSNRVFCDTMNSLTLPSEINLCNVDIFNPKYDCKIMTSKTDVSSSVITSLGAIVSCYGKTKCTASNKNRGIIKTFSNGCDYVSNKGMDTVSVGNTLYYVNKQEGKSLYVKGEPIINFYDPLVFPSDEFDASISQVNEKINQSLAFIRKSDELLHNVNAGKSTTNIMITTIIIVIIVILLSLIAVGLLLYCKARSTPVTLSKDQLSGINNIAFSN
Description: The full-length wild-type RSV F protein was transiently expressed in HEK293T cells. Forty-eight hours post transfection, the cells were detached using an EDTA-containing buffer and the cell suspension with or without added compounds was heat-shocked for 10 min at 55 °C. The cells were stained with the CR9501 and CR9503 antibodies (1 µg ml^−1) directly labeled with AlexaFluor647 (Alexa Fluor® 647 Monoclonal Antibody Labeling Kit, Molecular Probes/Invitrogen). Propidium iodide (Molecular Probes/Invitrogen) was used as a live-dead stain. Flow Cytometry was performed on FACS Canto II instrument (BD Biosciences). The data were analyzed using FlowJo9.6.1 software. A single cell population was selected on the side and forward scatters dot-plot. Within this population, PI-negative cells were analyzed for staining with CR9501 and CR9503 antibodies. Mean fluorescence intensity was calculated and the values of the heat-shocked samples were normalized to untreated (37 °C) samples.

HIV-1 IIIB virus = assay: HIV-1 assay in MT4-LTR-Luc cells; assay type: cell-based; conditions: Human immunodeficiency virus 1, IIIB; mean of at least 3 experiments
Description: (§2) Briefly, white 384-well plates were filled in quadruplicate using a customized robot system with serial fourfold dilutions of compound in a final volume of 10 µl culture medium. Then, 15 µl of a MT4-LTR-Luc cell suspension (4 × 10^5 cells per ml) in culture medium was added to each well followed by the addition of 15 µl HIV IIIB virus (MOI = 0.0125) in culture medium using a multidrop dispenser. […] The CC50 value was calculated on the basis of the difference of luminescence between non-treated and compound-treated cells.

[16] = dog
L141W mutant RSV = assay type: cell-based, respiratory syncytial virus; conditions: A549 cells, time-lapse imaging 48 h
[17] = Cytotoxicity in non-infected MT4-LTR-Luc cells; assay type: cell-based; conditions: human, mean of at least 3 experiments, read-out: CC50 (HIV-1 row)
Description: as §2

in vitro [18] = conditions: African green monkey; remark: listed apart in the source
[19] = system: soluble prefusion ectodomain of F protein; conditions: DSF
RSV A and B strains = conditions: HeLa cells
Description: Briefly, black 384-well clear-bottom microtiter plates were filled in quadruplicate using a customized robot system with serial fourfold dilutions of compound in a final volume of 200 nl dimethylsulfoxide (DMSO). Then, 20 µl of a HeLa cell suspension (5 × 10^4 cells ml^−1) in culture medium was added to each well followed by the addition of 20 µl RSV (multiplicity of infection, MOI = 0.02) in culture medium, or 20 µl culture medium for cell controls, using a multidrop dispenser. […] In parallel, compounds were incubated for 3 days in a set of white 384-well microtiter plates and the cytotoxicity of compounds in HeLa cells (CC50) was determined by measuring the adenosine triphosphate (ATP) content of the cells using the ATPlite kit (PerkinElmer, Waltham, MA) according to the manufacturer’s instructions. The activity of the compound against non-recombinant RSV A and B strains was determined similarly by plaque assay[70].

in vitro [20] = conditions: human; remark: listed apart in the source
Long strain RSV = assay: In vivo efficacy in RSV-infected cotton rats; set-up: species or system Sigmodon hispidus cotton rats
D489Y mutant RSV = assay type: cell-based, respiratory syncytial virus; conditions: A549 cells, time-lapse imaging 48 h
[21] = target: prefusion-stabilized RSV F protein (DS-Cav1) (respiratory syncytial virus strain A2); assay: crystal structure
[22] = mock-treated rgRSV224 during in vitro selection procedure, read-out: EC50 wild-type strain (untreated control)
[23] = 25 mg kg−1 daily starting 1 day after infection
[24] = RSV-infected, single 40 mg kg−1 p.o., BAL, mean ± s.e.m., n=6
[25] = HBECs, 100 nM, 6 or 24 h after onset of infection

In the case of `Cc1cn2nc([C@@H]3CCCCN3C(=O)c3cc(Cl)ccc3NS(C)(=O)=O)cc2nc1N1CC[C@H](N)C1` [GS-5806, reference compound], the “FC (fold change over wild-type strain) mutant strain D489Y” value ([1]; mutant selected with JNJ-53718678) is reported as > 50,000, the EC50 (rgRSV224; [22]) is reported as 1e-10 M and the EC50 (rgRSV224; read-out: EC50 parent strain (rgRSV224)) is reported as 1e-10 M. For the same compound, the “FC (fold change over wild-type strain) mutant strain L141W” value [2] was 379.

For `CS(=O)(=O)CCCn1c(Cn2c(=O)n(CC(F)(F)F)c3ccncc32)cc2cc(Cl)ccc21` [JNJ-53718678], the EC50 (recombinant hMPV) was 73 µM, the CC50 at 3 days (in vitro [3]) was greater than 25 µM and the “binding to post-fusion RSV F” value (post-fusion RSV F) was “did not bind”. For the same compound, the “viral titer in BALF and lavaged lung” value (RSV A2) was “significant decrease”, the “CCL2 mean concentration in BALF” value [4] was 118 ± 17 pg/mL and the “CCL3 mean concentration in BALF” value [4] was 77 ± 11 pg/mL. The “CCL5 mean concentration in BALF” value [4] was 111 ± 13 pg/mL, the “CXCL1 mean concentration in BALF” value [4] was 145 ± 23 pg/mL and the “CXCL9 mean concentration in BALF” value [4] was 1,878 ± 135 pg/mL. For the same compound, the “CXCL10 mean concentration in BALF” value [4] was 2,265 ± 332 pg/mL, the “IFN mean concentration in BALF” value [4] was 465 ± 109 pg/mL and the “IL-1 mean concentration in BALF” value [4] was 171 ± 8 pg/mL. The “IL-6 mean concentration in BALF” value [4] was 29 ± 5 pg/mL, the “IL-12p40 mean concentration in BALF” value [4] was 0.7 ± 0.4 pg/mL and the “IL-17 mean concentration in BALF” value [4] was 3.2 ± 0.3 pg/mL. The “reduction of the viral RNA titer in BALF and lavaged-lung tissue vs vehicle” value (RSV M37 strain; [23]) was greater than 95%, the “reduction of the viral RNA titer in BALF vs vehicle” value (RSV M37 strain; [23]) was ~ 22 fold and the “reduction of the viral RNA titer in lavaged-lung tissue vs vehicle” value (RSV M37 strain; [23]) was roughly 43 fold. For the same compound, the microscopic lung lesions (RSV M37 strain; 25 mg kg−1 initiated 1 day after infection) was “lacked microscopic lesions”, the “formation of gross RSV-associated lung lesions” value (RSV M37 strain; once daily starting 1 day after infection) was “complete inhibition” and the “RSV infectious titer in BALF and lavaged-lung tissue” value (RSV M37 strain; oral once daily 1, 5 or 25 mg kg−1 starting 1 day after infection, Day 6) was “(almost) complete eradication”. The EC50 [5] was 24.3 µM, the EC50 (recombinant PIV-3 strain) was 26.3 µM and the EC50 (recombinant MV) was greater than 100 µM. For the same compound, the CC50 at 4 days (in vitro [6]) was greater than 100 µM, the EC50 (DENV-2) was 17.7 µM and the EC50 ([1]; rgRSV224 carrying a D489Y resistance mutation in F, read-out: EC50 (mutant RSV)) was 4.1 µM. For the same compound, the CC50 (HeLa RH cells) was greater than 100 µM, the Cmax (in vivo [7]) was 254 ng/mL and the Tmax (in vivo [7]) was 1 h. The AUC(0-t) (in vivo [7]; AUC0-7 lung) was 2020 ng·h/mL, the AUC(0-t) (in vivo [7]; AUC0-7 plasma) was 680 ng·h/mL and the “effect of D489Y mutation on binding affinity to prefusion F” value [8] was “dramatic reduction”. For the same compound, the Vd (in vivo [9]; in vivo, iv, 1 mg/kg) was 2.8 L/kg, the AUC(0-inf) (in vivo [9]; in vivo, po, 5 mg/kg) was 9690 ng·h/mL and the Cmax (in vivo [9]; in vivo, po, 5 mg/kg) was 1120 ng/mL. It also gave a Tmax (in vivo [9]; in vivo, po, 5 mg/kg) of 1.7 h, a half-life (in vivo [9]; plasma) of 4.1 h and a clearance (in vivo [9]; plasma, iv, 1 mg/kg) of 9 mL/min/kg. The “improvement of activity as compared to BMS-433771” value (rgRSV224) was greater than 10 fold, the EC50 (rgRSV224; [22]) was 1.6e-09 M and the EC50 (rgRSV224; pEC50 = -Log10(EC50)(M), preliminary SAR, read-out: pEC50 (converted)) was 5.01e-10 M. The EC50 (CVB) was 3.73 µM, the “reduction of influx of neutrophils” value ([10]; BALB/c mice, single 40 mg kg−1 dose 1 h before infection) was ~ 5.5 fold and the “CD4+ T cells, mean cell number” value [10, 24] was 986 ± 113. The “CD8+ T cells, mean cell number” value [10, 24] was 2,757 ± 447, the “Monocytes (CD115+ infiltrating into the lung), mean cell number” value [10, 24] was 33 ± 9 and the “NK cells, mean cell number” value [10, 24] was 1,059 ± 130. The “Neutrophils, mean cell number” value [10, 24] was 160 ± 40, the “T cells, mean cell number” value [10, 24] was 2,869 ± 671 and the “effect of L141W mutation on binding affinity to prefusion F” value [11] was “dramatic reduction”. For the same compound, the EC50 (CMV-AD169-eGFP virus) was 17.4 µM, the binding stoichiometry [12] was “one inhibitor per trimer” and the Kd ([12]; read-out: equilibrium dissociation constant (KD)) was 0.0074 µM. For the same compound, the “reduction of viral replication vs non-treated cells” value [13, 25] was ~ 1.3 log10, the “reduction of viral titer vs non-treated cells” value [13, 25] was ~ 1.3 log10 and the EC50 ([13]; human respiratory syncytial virus, read-out: calculated EC50) was 0.0012 µM. It also gave a CC50 (in vitro [14]) greater than 100 µM, a CC50 at 2 days (in vitro [14]) greater than 100 µM and an EC50 (HRV 16) greater than 100 µM. The EC50 (HRV 1b) was greater than 100 µM, the “fraction of prefusion F on the surface of the cells after heat shock” value [15] was “concentration-dependent increase” and the EC50 (HIV-1 IIIB virus) was 13.5 µM. The F ([16]; PO 5 mg kg−1 vs IV 1 mg kg−1) was 89%, the “CLp as fraction of LBF” value ([16]; male, Beagle, in vivo, iv, 1 mg/kg) was ~ 27 % LBF and the “concentration required for inhibition of the infection rate, L141W mutant RSV” value (L141W mutant RSV) was 100 nM. For the same compound, the CC50 at 2 days [17] was 21.6 µM, the CC50 at 3 days (in vitro [18]) was greater than 25 µM and the “melting temperature (Tm) of soluble prefusion F ectodomain” value [19] was “concentration-dependent increase”. The “activity against RSV strains from both A and B subtypes” value (RSV A and B strains) was “highly active”, the CC50 at 5 days (in vitro [20]) was greater than 100 µM and the “decrease of the RSV titer in both BALF and lavaged-lung tissue” value (Long strain RSV; 40 mg kg−1 once daily from 24 h until Day 3 post-inoculation) was 1.5 log10. For the same compound, the “decrease of RSV titer in lungs vs vehicle group” value (Long strain RSV; single oral prophylactic dose 100 mg kg−1, 1 h before infection, on average) was 100 fold, the “reduction of the viral titer” value (Long strain RSV; single-dose therapeutic treatment 40 mg kg−1, 24 h after infection) was “moderate reduction” and the “concentration required for inhibition of the infection rate, D489Y mutant RSV” value (D489Y mutant RSV) was 10 µM.

“prefusion-stabilized RSV F protein (DS-Cav1) (domain or fragment)” showed a stoichiometry N [21] of 3.
